Literature values in US8552051B2 (H. L. Hall & Sons Limited, priority 2009, dated 2013).

Key:
PDE4 = details: Napoletano, M. et al. 2001
5-HT uptake = 5-HT uptake (Homo sapiens, UniProt P31645); details: U.S. Pat. No. 6,288,104
Chain of 5-HT uptake (P31645 whole entry): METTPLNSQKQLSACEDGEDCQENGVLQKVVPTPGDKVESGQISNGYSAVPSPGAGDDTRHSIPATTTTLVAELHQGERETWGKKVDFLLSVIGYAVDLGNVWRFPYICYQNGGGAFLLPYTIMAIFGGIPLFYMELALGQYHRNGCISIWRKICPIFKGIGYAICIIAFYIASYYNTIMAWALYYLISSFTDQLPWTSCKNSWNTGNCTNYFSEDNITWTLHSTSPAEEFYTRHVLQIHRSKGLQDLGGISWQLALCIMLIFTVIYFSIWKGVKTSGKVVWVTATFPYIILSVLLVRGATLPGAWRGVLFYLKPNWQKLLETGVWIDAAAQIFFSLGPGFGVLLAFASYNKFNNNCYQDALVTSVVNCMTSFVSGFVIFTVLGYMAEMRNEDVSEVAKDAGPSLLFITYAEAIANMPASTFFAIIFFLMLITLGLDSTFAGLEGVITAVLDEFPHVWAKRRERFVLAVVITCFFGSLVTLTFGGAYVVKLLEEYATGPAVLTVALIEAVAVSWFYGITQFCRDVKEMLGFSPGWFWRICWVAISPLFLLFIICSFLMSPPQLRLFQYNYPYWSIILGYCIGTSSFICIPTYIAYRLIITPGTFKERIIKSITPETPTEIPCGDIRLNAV

Row | SMILES | PDE4 inhibition, result in words (PDE4) | 5-HT uptake inhibitory activity, result in words (5-HT uptake)
1 | COc1ccc(C23CCC(=O)CC2N(C)CC3)cc1OC.Cl (centres unmarked) [Mesembrine hydrochloride] | weak PDE4 inhibitor | 
2 | COc1ccc(C23C=CC(O)CC2N(C)CC3)cc1OC (centres unmarked) [mesembrenol] |  | potent 5-HT uptake inhibitory activity
